Tests used:
[1] = test system: Fas; assay: Western blot analysis of Fas expression in MCF-7 cells; type: cell-based; details: 72 hours after IC60 dose
Protocol: (§1) Western Blotting. Western blots were performed as previously described (Longley et al., 2002). The Fas/CD95, Bcl-2 and BID (Santa Cruz Biotechnology, Santa Cruz, Calif.), caspase 8 (Oncogene Research Products, Darmstadt, Germany), PARP (Pharmingen, BD Biosciences, Oxford, England), c-FLIP (NF-6, Alexis, Bingham UK) DcR3 (Imgenex, San Diego, Calif.) mouse monoclonal antibodies were used in conjunction with a horseradish peroxidase (HRP)-conjugated sheep anti-mouse secondary antibody (Amersham, Little Chalfont, Buckinghamshire, England). FasL rabbit polyclonal antibody (Santa Cruz Biotechnology) was used in conjunction with an HRP-conjugated donkey anti-rabbit secondary antibody (Amersham). Equal loading was assessed using a β-tubulin mouse monoclonal primary antibody (Sigma).

[2] = test system: HCT116p53+/+ cells; assay: MTT cell viability assay, HCT116 p53 wild type cells; type: cell-based, human; details: for synergy with CH-11 (RI from MTT): HCT116 p53 wild-type, drug 24 hours then CH-11 200 ng/ml for 48 hours; for IC60(72h) dose: HCT116p53+/+ cells; for effect on cell viability: HCT116 cells, presence or absence of drug
Protocol: (§2) Cell Viability Assays. […] To investigate drug-induced Fas-mediated apoptosis, cells were seeded at 2,000-5,000 cells per well on 96-well plates. […] To assess chemotherapy/siRNA interactions, 20,000-50,000 cells were seeded per well on 24-well plates. Twenty-four hours later, the cells were transfected with FLIP-targeted (FT) or scrambled siRNA (SC). […] MTT (0.5 mg/ml) was added to each well and the cells were incubated at 37° C. for a further 2 hours. The culture medium was removed and formazan crystals reabsorbed in 200 μl (96-well) or 1 ml (24-well) DMSO. Cell viability was determined by reading the absorbance of each well at 570 nm using a microplate reader (Molecular Devices, Wokingham, England).
(§3) siRNA transfections. FLIP-targeted siRNA was designed using the Ambion siRNA target finder and design tool (www.ambion.com/techlib/misc/siRNA_finder.html) to inhibit both splice variants of c-FLIP. Both c-FLIP-targeted (FT) and scrambled control (SC) siRNA were obtained from Xeragon (Germantown, Md.).
(§4) Statistical Analyses. The nature of the interaction between the chemotherapeutic drugs and FLIP-targeted siRNAs was determined by calculating the combination index (CI) according to the method of Chou and Talalay (14). CI values were calculated from isobolograms generated using the CalcuSyn software programme (Microsoft Windows). […] An unpaired two-tailed t test was used to determine the significance of changes in levels of apoptosis between different treatment groups.

[3] = test system: HCT116p53-/- cells; assay: MTT cell viability assay, HCT116 p53 null cells; type: cell-based, human; details: for synergy with CH-11 (RI from MTT): HCT116 p53 null, drug 24 hours then CH-11 200 ng/ml for 48 hours
Protocol: as §2, §3, §4

[4] = patients with metastatic colorectal cancer; cited from earlier work
[5] = test system: HLacZ cell line; assay: Flow cytometric analysis of apoptosis, HLacZ control cell line; type: cell-based, human; details: 5 μM 5-FU for 72 hours
Protocol: (§5) Generation of c-FLIP overexpressing cell lines. c-FLIPL and c-FLIPS coding regions were PCR amplified and ligated into the pcDNA/V5-His TOPO vector according to the manufacturer's instructions (Life Technologies Inc.). HCT116p53^+/+ cells were co-transfected with 10 μg of each c-FLIP expression construct and 1 μg of a construct expressing a puromycin resistance gene (pIRESpuro3, Clontech) using GeneJuice. Stably transfected HCT116 cells were selected and maintained in medium supplemented with 1 μg/ml puromycin (Life Technologies Inc.). Stable overexpression of c-FLIP was assessed by Western blot analysis.
(§6) Flow Cytometric Analysis. Cells were seeded at 1×10^5 per well of a 6-well tissue culture plate. […] DNA content of harvested cells was evaluated after propidium iodide staining of cells using the EPICS XL Flow Cytometer (Coulter, Miami, Fla.).

[6] = test system: HFL24 cells; assay: Flow cytometric analysis of apoptosis, HFL24 cells (c-FLIPL-overexpressing HCT116); type: cell-based, human; details: 5 μM 5-FU for 72 hours
Protocol: as §5, §6

[7] = test system: HFL17 cells; assay: Flow cytometric analysis of apoptosis, HFL17 cells (c-FLIPL-overexpressing HCT116); type: cell-based, human; details: 5 μM 5-FU for 72 hours
Protocol: as §5, §6

[8] = test system: HCT116p53-/- cells; assay: Flow cytometric analysis of apoptosis, HCT116p53-/- cells; type: cell-based, human; details: for cells in the sub-G0/G1 fraction (apoptosis): HCT116p53-/- cells, 1 nM siRNA, no drug, 5 μM 5-FU, 5 μM oxaliplatin or 1 μM CPT-11, 72 hours
Protocol: as §6
(§7) siRNA transfections. FLIP-targeted siRNA was designed using the Ambion siRNA target finder and design tool (www.ambion.com/techlib/misc/siRNA_finder.html) to inhibit both splice variants of c-FLIP. Both c-FLIP-targeted (FT) and scrambled control (SC) siRNA were obtained from Xeragon (Germantown, Md.). The FT siRNA sequence used was: […]. The FL siRNA sequence used was: […]. The control non-silencing siRNA sequence (SC) used was: […]. siRNA transfections were performed on sub-confluent cells incubated in Optimem medium using the oligofectamine reagent (both from Life Technologies Inc) according to the manufacturer's instructions.

[9] = target: Fas death receptor (UniProt P25445); assay: cell-based or functional assay
Sequence of Fas death receptor (P25445 26-335 limits assumed): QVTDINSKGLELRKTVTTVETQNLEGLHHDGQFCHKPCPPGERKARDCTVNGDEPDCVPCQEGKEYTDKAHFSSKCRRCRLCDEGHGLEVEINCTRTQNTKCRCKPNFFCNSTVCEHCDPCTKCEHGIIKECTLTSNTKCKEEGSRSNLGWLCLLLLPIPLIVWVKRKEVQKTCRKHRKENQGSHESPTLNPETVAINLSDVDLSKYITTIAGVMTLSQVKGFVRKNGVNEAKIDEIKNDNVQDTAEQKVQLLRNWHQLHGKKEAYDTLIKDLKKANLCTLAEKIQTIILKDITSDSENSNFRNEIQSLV

[10] = adjuvant setting of colorectal cancer; cited from earlier work
[11] = test system: HCT116p53+/+ cells; assay: Flow cytometric analysis of apoptosis, HCT116p53+/+ cells; type: cell-based, human; details: for cells in the sub-G0/G1 apoptotic fraction: 0.5 nM siRNA, no drug, 5 μM 5-FU or 1 μM oxaliplatin for 48 hours
Protocol: as §6, §7

[12] = test system: MCF-7 cells; type: cell-based; details: alone or in combination with 5-FU (data not shown)
Protocol: Cell Viability Assays. […] To assess chemotherapy/siRNA interactions, 20,000-50,000 cells were seeded per well on 24-well plates. Twenty-four hours later, the cells were transfected with FLIP-targeted (FT) or scrambled siRNA (SC). Four hours after transfection, the cells were treated with a range of concentrations of each drug for a further 72-96 hours. MTT (0.5 mg/ml) was added to each well and the cells were incubated at 37° C. for a further 2 hours. […] FLIP-targeted siRNA was designed using the Ambion siRNA target finder and design tool (www.ambion.com/techlib/misc/siRNA_finder.html) to inhibit both splice variants of c-FLIP. Both c-FLIP-targeted (FT) and scrambled control (SC) siRNA were obtained from Xeragon (Germantown, Md.). The FT siRNA sequence used was: [NT] The FL siRNA sequence used was: [NT] The control non-silencing siRNA sequence (SC) used was: [NT] siRNA transfections were performed on sub-confluent cells incubated in Optimem medium using the oligofectamine reagent (both from Life Technologies Inc) according to the manufacturer's instructions.

[13] = test system: c-FLIPL-overexpressing HCT116p53+/+ cell lines (HFL17, HFL24); assay: Growth inhibition (MTT) in c-FLIPL-overexpressing HCT116p53+/+ cell lines versus HLacZ; type: cell-based, human
Protocol: as §2

[14] = test system: c-FLIP; assay: Western blot of c-FLIP expression after siRNA transfection, H630 cells; type: cell-based; details: 1 nM, 24 hours
Protocol: as §1
as §3, with “Md.). The FT siRNA sequence used was: AAGCAGTCTGTTCAAGGAGCA. The FL siRNA sequence used was: AAGGAACAGCTTGGCGCTCAA. […]” for “Md.).”

[15] = test system: c-FLIP; assay: Western blot of c-FLIP expression after siRNA transfection, HCT116p53+/+ cells; type: cell-based, human; details: for down-regulation of c-FLIP expression: nanomolar concentrations
Protocol: as §1
siRNA transfections. FLIP-targeted siRNA was designed using the Ambion siRNA target finder and design tool (www.ambion.com/techlib/misc/siRNA_finder.html) to inhibit both splice variants of c-FLIP. Both c-FLIP-targeted (FT) and scrambled control (SC) siRNA were obtained from Xeragon (Germantown, Md.). The FT siRNA sequence used was: AAGCAGTCTGTTCAAGGAGCA. The FL siRNA sequence used was: AAGGAACAGCTTGGCGCTCAA. The control non-silencing siRNA sequence (SC) used was: AATTCTCCGAACGTGTCACGT. siRNA transfections were performed on sub-confluent cells incubated in Optimem medium using the oligofectamine reagent (both from Life Technologies Inc) according to the manufacturer's instructions.

[16] = test system: c-FLIP; assay: Western blot of c-FLIP expression after siRNA transfection, HCT116p53-/- cells; type: cell-based, human; details: 1 nM FT siRNA
Protocol: as §1
(§8) siRNA transfections. FLIP-targeted siRNA was designed using the Ambion siRNA target finder and design tool (www.ambion.com/techlib/misc/siRNA_finder.html) to inhibit both splice variants of c-FLIP. Both c-FLIP-targeted (FT) and scrambled control (SC) siRNA were obtained from Xeragon (Germantown, Md.). The FT siRNA sequence used was: AAGCAGTCTGTTCAAGGAGCA. The FL siRNA sequence used was: AAGGAACAGCTTGGCGCTCAA. […]

[17] = test system: c-FLIP; assay: Western blot of c-FLIP expression after siRNA transfection, RKO cells; type: cell-based; details: 1 nM, 24 hours
Protocol: as §1, §8

[18] = test system: H630 cells; assay: MTT cell viability assay, H630 cells; type: cell-based; details: absence of chemotherapy, read-out: IC50(72h) dose
Protocol: as §2, §3
(§9) Statistical Analyses. The nature of the interaction between the chemotherapeutic drugs and FLIP-targeted siRNAs was determined by calculating the combination index (CI) according to the method of Chou and Talalay (14). CI values were calculated from isobolograms generated using the CalcuSyn software programme (Microsoft Windows). […]

[19] = test system: RKO cells; assay: MTT cell viability assay, RKO cells; type: cell-based; details: absence of chemotherapy, read-out: IC50(72h) dose
Protocol: as §2, §3, §9

[20] = test system: c-FLIP; assay: Western blot of c-FLIP expression after siRNA transfection, MCF-7 cells; type: cell-based; details: 10 nM FT siRNA
Protocol: as §1, §8

Molecule: Cc1nc2ccc(CN(C)c3ccc(C(=O)N[C@@H](CCC(=O)O)C(=O)O)s3)cc2c(=O)[nH]1 [TDX, tomudex]
- up-regulation of Fas expression [1]: ~7 fold
- synergy with CH-11 (RI from MTT) [2]: significant synergy
- synergy with CH-11 (RI from MTT) [3]: synergy

Molecule: O=c1[nH]cc(F)c(=O)[nH]1 [5-FU]
- up-regulation of Fas expression [1]: ~12 fold
- response rates [4]: 10-15%
- IC60(72h) dose [2]: 5000 nM
- cells in the sub-G1/G0 apoptotic fraction [5]: ~41%
- cells in the sub-G1/G0 apoptotic fraction [6]: ~17%
- cells in the sub-G1/G0 apoptotic fraction [7]: ~15%

Molecule: CCc1c2c(nc3ccc(OC(=O)N4CCC(N5CCCCC5)CC4)cc13)-c1cc3c(c(=O)n1C2)COC(=O)[C@]3(O)CC [CPT-11, irinotecan]
- synergy with CH-11 (RI from MTT) [2]: significant synergy
- synergy with CH-11 (RI from MTT) [3]: synergy
- synergy with CH-11 (propidium iodide staining) ([8]; HCT116 p53 null, drug 24 hours then CH-11 50 ng/ml 24 hours): significant synergy

Molecule: agonistic Fas monoclonal antibody CH-11
- cells in the sub-G1/G0 apoptotic phase (flow cytometry, MCF-7, 5-FU 72 h then 250 ng/ml CH-11 24 h) [9]: 55%
- cells in the sub-G1/G0 apoptotic phase (flow cytometry, MCF-7, OXA then CH-11) [9]: 50%
- cells in the sub-G1/G0 apoptotic phase (flow cytometry, MCF-7, TDX 72 h then 250 ng/ml CH-11 24 h) [9]: 60%

Molecule: 5-FU/leucovorin
- 3-year survival [10]: 72.9%

Molecule: SC siRNA: control non-silencing siRNA; sequence AATTCTCCGAACGTGTCACGT (AATTCTCCGAACGTGTCACGT; chemistry not given here)
- cells in the sub-G0/G1 apoptotic fraction [11]: ~9%
- effect on cell viability [12]: no effect on cell viability
- effect on cell viability [2]: no significant effect on cell viability
- effect on cell viability ([2]; listed as Control siRNA): no effect on cell viability
- cells in the sub-G0/G1 fraction (apoptosis) [8]: ~9%

Molecule: O=C1[O][Pt]2([NH][C@@H]3CCCC[C@H]3[NH]2)[O]C1=O [OXA, oxaliplatin]
- increase in the IC50(72h) dose caused by c-FLIPL overexpression [13]: 1.7-2.0 fold
- IC60(72h) dose [2]: 1000 nM

Molecule: FT siRNA: siRNA inhibiting both splice variants of c-FLIP; sequence AAGCAGTCTGTTCAAGGAGCA (AAGCAGTCTGTTCAAGGAGCA; chemistry not given here)
- down-regulation of c-FLIP protein [14]: down-regulated c-FLIP protein
- cells in the sub-G0/G1 apoptotic fraction [11]: ~26%
- down-regulation of c-FLIP expression [15]: potently down-regulated expression of both c-FLIP splice variants
- time at which both c-FLIP splice forms were efficiently down-regulated ([15]; post-transfection, 1 and 10 nM FT siRNA): 8 h
- IC50 ([2]; HCT116 p53 wild type cells, absence of chemotherapy, read-out: IC50(72h) dose): ~0.7 nM
- down-regulation of c-FLIP expression [16]: effectively down-regulated
- down-regulation of c-FLIP protein [17]: down-regulated c-FLIP protein
- IC50 [18]: ~25 nM
- IC50 [19]: ~5 nM
- down-regulation of c-FLIP expression [20]: potently down-regulated expression of both c-FLIP splice variants
- IC50 ([3]; HCT116 p53 null cells, absence of chemotherapy, read-out: IC50(72h) dose): ~2.5 nM
- cells in the sub-G0/G1 fraction (apoptosis) [8]: ~14%

Molecule: FL siRNA: siRNA specifically down-regulating c-FLIPL; sequence AAGGAACAGCTTGGCGCTCAA (AAGGAACAGCTTGGCGCTCAA; listed as DNA, chemistry not given here)
- apoptosis in the absence of chemotherapy ([11]; PARP cleavage and flow cytometry (data not shown)): induced apoptosis
- down-regulation of c-FLIP expression [15]: specifically down-regulate the long splice form without affecting expression of c-FLIPS
